Reference: patent US6362369B1, “Phthalic acid diamide derivatives fluorine-containing aniline compounds as starting material, agricultural and horticultural insecticides, and a method for application of the insecticides” (Nihon Nohyaku Co., Ltd., priority 1997, dated 2002)

Assays:
Format in all cases: in vivo
[1] = tested on: diamondback moth (Plutella xylostella); assay: Insecticidal effect on diamondback moth (Test Example 1); conditions: for Insecticidal effect (Test Example 1), judged from mortality / Insecticidal effect, Test Example 1: diamondback moth; for Insecticidal effect (Test Example 1), judged from mortality: judged by the criterion of Test Example 1; for Insecticidal effect on diamondback moth (Test Example 1), judged grade: mortality judged according to the criterion shown in Test Example 1
Summary of the method: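 Triplicate groups of 10 insects were scored: six days after immersion of oviposited Chinese cabbage seedlings and holding at 25 °C post air-drying, hatched larvae were counted. Mortality derived from these counts and insecticidal effect judged by a set criterion.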

[2] = tested on: common cutworm (Spodoptera Litura); assay: Insecticidal effect on common cutworm (Test Example 2); conditions: 500 ppm, 25° C.; for Insecticidal effect (Test Example 2), judged from mortality / Insecticidal effect on common cutworm (Test Example 2), judged grade: cabbage leaf dip; for Insecticidal effect (Test Example 2), judged from mortality: 8 days after inoculation; for Insecticidal effect on common cutworm (Test Example 2), judged grade: second-instar larvae; for Insecticidal effect on common cutworm (Test Example 2), judged grade / Insecticidal effect, Test Example 2: eight days after inoculation; for Insecticidal effect, Test Example 2: cabbage leaf immersed
Method: Insecticidal effect on common cutworm (Spodoptera Litura)
After air-drying, it was placed in a plastic Petri dish with a diameter of 9 cm and inoculated with second-instar larvae of common cutworm, after which the dish was closed and then allowed to stand in a room thermostated at 25° C. Eight days after the inoculation, the dead and alive were counted. The mortality was calculated according to the following equation and the insecticidal effect was judged according to the criterion shown in Test Example 1. The test was carried out with triplicate groups of 10 insects. [formula]

[3] = tested on: rice leafroller (Cnaphalocrocis medinalis); assay: Insecticidal effect on rice leafroller (Test Example 3); conditions: 500 ppm, 25° C., humidity 70%; for Insecticidal effect, Test Example 3: rice lamina immersed; for Insecticidal effect, Test Example 3 / Insecticidal effect on rice leafroller (Test Example 3), judged grade: four days after inoculation; for Insecticidal effect (Test Example 3), judged from mortality / Insecticidal effect on rice leafroller (Test Example 3), judged grade: rice lamina dip; for Insecticidal effect (Test Example 3), judged from mortality: 4 days after inoculation; for Insecticidal effect on rice leafroller (Test Example 3), judged grade: third-instar larvae
Summary of the method: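 Insecticidal effect is judged by a predefined criterion from dead/alive counts four days after infesting air-dried lamina with third-instar larvae, kept on moistened filter paper at 25° C, 70% humidity.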

[4] = second-instar larvae of common cutworm
[5] = judged by the mortality criterion of Test Example 1
[6] = mortality judged by criterion of Test Example 1
[7] = common cutworm second-instar larvae
[8] = third-instar larvae of rice leafroller
[9] = rice leafroller third-instar larvae

Compound: Cc1cc2c(cc1NC(=O)c1cccc(I)c1C(=O)NC(C)(C)C)OC(F)(F)C(F)O2 (racemic) [compound 1599]
- Insecticidal effect (Test Example 1), judged from mortality [1]: A (100)
- Insecticidal effect (Test Example 2), judged from mortality [2, 4]: A (100)

Compound: Cc1cc(OC(F)(F)F)ccc1NC(=O)c1cccc(I)c1C(=O)NC(C)(C)CBr [compound 1605]
- Insecticidal effect (Test Example 1), judged from mortality [1]: A (100)
- Insecticidal effect (Test Example 2), judged from mortality [2, 4]: C (89-80)

Compound: CC(C)NC(=O)c1c(C(=O)Nc2c(Cl)cccc2Cl)cccc1[N+](=O)[O-] [compound 635]
- Insecticidal effect on diamondback moth (Test Example 1), judged grade [1]: A (100)
- Insecticidal effect on common cutworm (Test Example 2), judged grade [2]: D (79-50)

Compound: Cc1c(NC(=O)c2cccc(I)c2C(=O)NC(C)(C)C)ccc(C(F)(F)C(F)(F)F)c1C [compound 1613]
- Insecticidal effect (Test Example 1), judged from mortality [1]: A (100)
- Insecticidal effect (Test Example 2), judged from mortality [2, 4]: A (100)

Compound: CC(C)NC(=O)c1c(I)cccc1C(=O)Nc1cc2c(cc1Cl)OC(F)C(F)(F)O2 (racemic) [compound 1600]
- Insecticidal effect (Test Example 1), judged from mortality [1]: A (100)
- Insecticidal effect (Test Example 2), judged from mortality [2, 4]: A (100)

Compound: Cc1cc(Oc2c(F)c(F)c(F)c(F)c2F)ccc1NC(=O)c1c(Cl)cccc1C(=O)NC(C)C [compound 248]
- Insecticidal effect, Test Example 1 [1, 5]: A (100)
- Insecticidal effect, Test Example 2 [2, 4]: C (89-80)

Compound: Cc1cc2c(cc1NC(=O)c1cccc(I)c1C(=O)NC(C)C)OC(F)(F)C(F)O2 (racemic) [compound 1598]
- Insecticidal effect (Test Example 1), judged from mortality [1]: A (100)
- Insecticidal effect (Test Example 2), judged from mortality [2, 4]: A (100)

Compound: CC(C)NC(=O)c1c(I)cccc1C(=O)Nc1cc2c(cc1I)OC(F)(F)O2 [compound 1660]
- Insecticidal effect (Test Example 1), judged from mortality [1]: A (100)
- Insecticidal effect (Test Example 2), judged from mortality [2, 4]: A (100)

Compound: CC(C)NC(=O)c1ccccc1C(=O)Nc1ccc(SC(F)(F)C(F)F)cc1 [compound 34]
- Insecticidal effect, Test Example 1 [1, 5]: A (100)
- Insecticidal effect, Test Example 2 [2, 4]: C (89-80)

Compound: CCN(CC)C(=O)c1c(C(=O)Nc2ccc(C(F)(F)C(F)(F)F)cc2C)ccc(F)c1Cl [compound 1258]
- Insecticidal effect, Test Example 1 [1, 6]: A (100)
- Insecticidal effect, Test Example 2 [2, 7]: A (100)

Compound: CC(C)NC(=O)c1c(C(=O)Nc2ccc(Br)cc2)cccc1[N+](=O)[O-] [compound 591]
- Insecticidal effect on diamondback moth (Test Example 1), judged grade [1]: A (100)
- Insecticidal effect on common cutworm (Test Example 2), judged grade [2]: D (79-50)

Compound: CCN(CC)C(=O)c1c(C(=O)Nc2ccc(OC(F)(F)F)cc2C)ccc(F)c1Cl [compound 1261]
- Insecticidal effect, Test Example 1 [1, 6]: A (100)
- Insecticidal effect, Test Example 2 [2, 7]: A (100)

Compound: Cc1cc(Oc2ccc(C(F)(F)F)cn2)ccc1NC(=O)c1c(I)cccc1C(=O)NC(C)C [compound 460]
- Insecticidal effect on diamondback moth (Test Example 1), judged grade [1]: A (100)
- Insecticidal effect on common cutworm (Test Example 2), judged grade [2]: B (99-90)

Compound: Cc1cc(OC(F)F)ccc1NC(=O)c1cccc(Cl)c1C(=O)N[C@@H](C)c1ccccc1 [compound 1459]
- Insecticidal effect (Test Example 1), judged from mortality [1]: A (100)
- Insecticidal effect (Test Example 2), judged from mortality [2, 4]: A (100)

Compound: CC(C)NC(=O)c1c(Cl)cccc1C(=O)Nc1cc2c(cc1F)OC(F)(F)O2 [compound 1594]
- Insecticidal effect (Test Example 1), judged from mortality [1]: A (100)
- Insecticidal effect (Test Example 2), judged from mortality [2, 4]: A (100)

Compound: Cc1cc(Cl)ccc1NC(=O)c1cccc([N+](=O)[O-])c1C(=O)NC(C)C [compound 664, 3-nitro-N^1-(4-chloro-2-methylphenyl)-N^2-isopropyl-phthalic acid diamide]
- Insecticidal effect on diamondback moth (Test Example 1), judged grade [1]: A (100)
- Insecticidal effect on common cutworm (Test Example 2), judged grade [2]: A (100)

Compound: Cc1c(NC(=O)c2cccc(I)c2C(=O)NC(C)C)ccc(C(F)(F)C(F)(F)F)c1C [compound 1612]
- Insecticidal effect (Test Example 1), judged from mortality [1]: A (100)
- Insecticidal effect (Test Example 2), judged from mortality [2, 4]: A (100)

Compound: Cc1cc(C(F)(F)C(F)(F)F)ccc1NC(=O)c1ccc(F)c(Cl)c1C(=O)NC(C)(C)C [compound 1257]
- Insecticidal effect, Test Example 1 [1, 6]: A (100)
- Insecticidal effect, Test Example 2 [2, 7]: A (100)

Compound: Cc1cc(C(F)(C(F)(F)F)C(F)(F)F)c(F)cc1NC(=O)c1cccc(I)c1C(=O)NC(C)(C)C [compound 1664]
- Insecticidal effect (Test Example 1), judged from mortality [1]: A (100)
- Insecticidal effect (Test Example 2), judged from mortality [2, 4]: A (100)

Compound: CC(C)NC(=O)c1c(C(=O)Nc2c(F)c(F)c(F)c(F)c2F)cccc1[N+](=O)[O-] [compound 646]
- Insecticidal effect on diamondback moth (Test Example 1), judged grade [1]: A (100)
- Insecticidal effect on common cutworm (Test Example 2), judged grade [2]: D (79-50)

Compound: Cc1ccc(Cl)cc1NC(=O)c1c(Cl)cccc1C(=O)NC(C)C [compound 215]
- Insecticidal effect, Test Example 1 [1, 5]: A (100)
- Insecticidal effect, Test Example 2 [2, 4]: D (79-50)

Compound: Cc1cc(C#Cc2ccc(Cl)cc2Cl)ccc1NC(=O)c1cccc(I)c1C(=O)NC(C)C [compound 972]
- Insecticidal effect, Test Example 2 [2, 7]: A (100)

Compound: CC(C)NC(=O)c1c(C(=O)Nc2cc(C(F)(F)F)cc(C(F)(F)F)c2)cccc1[N+](=O)[O-] [compound 654]
- Insecticidal effect on common cutworm (Test Example 2), judged grade [2]: D (79-50)

Compound: Cc1ccc(OCCNC(=O)c2c(C(=O)Nc3cc(Cl)ccc3C)cccc2[N+](=O)[O-])c(C)c1 [compound 880]
- Insecticidal effect on common cutworm (Test Example 2), judged grade [2]: D (79-50)

Compound: CC(C)NC(=O)c1ccccc1C(=O)Nc1ccc(SC(F)(F)F)cc1 [compound 1123]
- Insecticidal effect, Test Example 2 [2, 7]: A (100)

Compound: CC(C)NC(=O)c1c(I)cccc1C(=O)Nc1ccc2c(c1Cl)OC(F)(F)C(F)(F)O2 [compound 1732]
- Insecticidal effect (Test Example 2), judged from mortality [2, 4]: A (100)

Compound: CSc1cccc(C(=O)NC(C)C)c1C(=O)Nc1cccc(Cl)c1C [compound 785]
- Insecticidal effect on common cutworm (Test Example 2), judged grade [2]: A (100)

Compound: CC(C)NC(=O)c1cccc(Cl)c1C(=O)Nc1ccc2c(c1)nc(C(F)(F)F)n2C [compound 257]
- Insecticidal effect, Test Example 1 [1, 5]: A (100)
- Insecticidal effect, Test Example 3 [3, 8]: B (99-90)

Compound: CC(C)NC(=O)c1ccc(Cl)cc1C(=O)Nc1ccccc1 [compound 181]
- Insecticidal effect, Test Example 2 [2, 4]: A (100)

Compound: CC(C)NC(=O)c1ccccc1C(=O)Nc1ccc(C(F)(F)F)cc1 [compound 25]
- Insecticidal effect, Test Example 1 [1, 5]: A (100)
- Insecticidal effect, Test Example 3 [3, 8]: A (100)

Compound: Cc1cc(OC(F)(F)C(F)(F)c2ccccc2)ccc1NC(=O)c1ccccc1C(=O)NC(C)C [compound 1086]
- Insecticidal effect, Test Example 1 [1, 6]: A (100)
- Insecticidal effect, Test Example 3 [3, 9]: A (100)

Compound: CCN(CC)C(=O)c1c(F)cccc1C(=O)Nc1ccc(OC(F)(F)F)cc1 [compound 1548]
- Insecticidal effect (Test Example 1), judged from mortality [1]: A (100)
- Insecticidal effect (Test Example 3), judged from mortality [3, 8]: A (100)

Compound: CC(C)(C)NC(=O)c1c(I)cccc1C(=O)Nc1ccc(C(F)(C(F)(F)F)C(F)(F)F)c2c1CCCC2 [compound 1727]
- Insecticidal effect (Test Example 1), judged from mortality [1]: A (100)
- Insecticidal effect (Test Example 3), judged from mortality [3, 8]: A (100)

Compound: CC(C)NC(=O)c1c(I)cccc1C(=O)Nc1cccc(C(F)(F)F)c1 [compound 348]
- Insecticidal effect, Test Example 1 [1, 5]: A (100)
- Insecticidal effect, Test Example 3 [3, 8]: A (100)

Compound: Cc1cc(Cl)ccc1NC(=O)c1cccc(C(=O)NC(C)C)c1C(=O)NC(C)C [compound 803]
- Insecticidal effect on diamondback moth (Test Example 1), judged grade [1]: A (100)
- Insecticidal effect on rice leafroller (Test Example 3), judged grade [3]: A (100)

Compound: CC(C)(C)NC(=O)c1ccccc1C(=O)Nc1ccccc1 [compound 840]
- Insecticidal effect on diamondback moth (Test Example 1), judged grade [1]: A (100)
- Insecticidal effect on rice leafroller (Test Example 3), judged grade [3]: D (79-50)

Compound: CC(C)NC(=O)c1c(I)cccc1C(=O)Nc1cc(Cl)c(OC(F)F)c(Cl)c1 [compound 383]
- Insecticidal effect, Test Example 1 [1, 5]: A (100)
- Insecticidal effect, Test Example 3 [3, 8]: A (100)

Compound: Cc1cc(OC(F)(F)F)ccc1NC(=O)c1ccc(F)c(F)c1C(=O)NC(C)(C)C [compound 1284]
- Insecticidal effect, Test Example 1 [1, 6]: A (100)
- Insecticidal effect, Test Example 3 [3, 9]: A (100)

Compound: COc1ccccc1CNC(=O)c1c(Cl)cccc1C(=O)Nc1ccc(C(F)(F)C(F)(F)F)cc1C [compound 1343]
- Insecticidal effect, Test Example 1 [1, 6]: A (100)
- Insecticidal effect, Test Example 3 [3, 9]: A (100)
